Consider 27 compounds from patent publication US7846959B2, “Raf modulators and methods of use” (Exelixis, Inc., priority 2004, dated 2010).

Like-named read-outs stand apart in the source and are kept apart here.

One test deals with B-Raf (Homo sapiens, UniProt P15056). As to the kind of experiment: Luciferase-coupled chemiluminescence kinase assay (ATP consumption), B-Raf. It counts as biochemical. A digest of the protocol:
(§1)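 Compound is first mixed with […] Raf enzyme in 20 mM Tris pH 7.5 containing 10 mM MgCl2, 0.03% TX-100 and 1 mM DTT (30 min, room temperature). ATP then starts a 3 h reaction, and unconsumed ATP is detected by chemiluminescence.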

The next test deals with c-Raf (Homo sapiens, UniProt P04049). As to the kind of experiment: Luciferase-coupled chemiluminescence kinase assay (ATP consumption), c-Raf. It counts as biochemical. A digest of the protocol:
as §1

Setting [1] is: read-out: bRaf (inhibition indicated as IC50).
The mark [2] stands for this setting: read-out: cRaf-1 (inhibition indicated as IC50).

Chain of B-Raf (P15056 whole entry): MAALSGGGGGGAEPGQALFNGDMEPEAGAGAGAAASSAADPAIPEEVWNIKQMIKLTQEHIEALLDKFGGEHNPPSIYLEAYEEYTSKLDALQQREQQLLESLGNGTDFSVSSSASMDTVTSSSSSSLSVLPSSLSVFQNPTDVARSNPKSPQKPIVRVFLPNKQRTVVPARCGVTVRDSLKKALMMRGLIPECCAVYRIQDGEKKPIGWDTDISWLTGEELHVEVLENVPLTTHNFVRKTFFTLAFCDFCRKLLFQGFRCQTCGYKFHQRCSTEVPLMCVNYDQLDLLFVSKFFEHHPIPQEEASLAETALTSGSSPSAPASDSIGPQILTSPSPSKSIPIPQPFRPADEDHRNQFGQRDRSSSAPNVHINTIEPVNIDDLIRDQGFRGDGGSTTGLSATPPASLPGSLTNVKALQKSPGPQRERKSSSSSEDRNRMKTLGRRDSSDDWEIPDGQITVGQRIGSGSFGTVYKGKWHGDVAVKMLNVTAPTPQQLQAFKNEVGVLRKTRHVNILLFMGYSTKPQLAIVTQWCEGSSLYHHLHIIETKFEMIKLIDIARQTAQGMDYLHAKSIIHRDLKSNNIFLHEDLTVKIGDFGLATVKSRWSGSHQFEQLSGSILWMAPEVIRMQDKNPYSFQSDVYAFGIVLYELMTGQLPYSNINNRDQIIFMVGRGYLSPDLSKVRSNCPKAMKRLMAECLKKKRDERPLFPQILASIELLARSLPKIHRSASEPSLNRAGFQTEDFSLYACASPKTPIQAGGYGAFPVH
Chain of c-Raf (P04049 whole entry): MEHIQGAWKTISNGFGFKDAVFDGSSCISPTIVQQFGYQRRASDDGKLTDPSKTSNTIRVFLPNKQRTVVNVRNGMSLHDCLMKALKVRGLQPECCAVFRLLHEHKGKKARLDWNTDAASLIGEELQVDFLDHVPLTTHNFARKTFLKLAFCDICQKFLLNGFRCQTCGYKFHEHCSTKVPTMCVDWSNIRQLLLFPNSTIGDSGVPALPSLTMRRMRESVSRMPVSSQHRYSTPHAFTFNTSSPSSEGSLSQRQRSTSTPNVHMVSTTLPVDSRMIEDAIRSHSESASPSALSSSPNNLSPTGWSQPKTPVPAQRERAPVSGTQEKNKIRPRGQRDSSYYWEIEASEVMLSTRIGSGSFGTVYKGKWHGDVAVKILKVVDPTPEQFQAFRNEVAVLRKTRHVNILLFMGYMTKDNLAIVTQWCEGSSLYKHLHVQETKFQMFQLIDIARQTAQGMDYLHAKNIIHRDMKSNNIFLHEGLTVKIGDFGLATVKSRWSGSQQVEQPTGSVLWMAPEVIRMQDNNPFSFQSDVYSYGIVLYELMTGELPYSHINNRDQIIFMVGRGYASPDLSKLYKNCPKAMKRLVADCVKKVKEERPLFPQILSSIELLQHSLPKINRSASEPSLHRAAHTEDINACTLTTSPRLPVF

Turning to `COC(=O)Nc1nc2cc(C3(O)c4ccccc4C(=O)N3S(=O)(=O)c3ccccc3)ccc2[nH]1` (stereo not drawn) [Entry 268, methyl {5-[1-hydroxy-3-oxo-2-(phenylsulfonyl)-2,3-dihydro-1H-isoindol-1-yl]-1H-benzimidazol-2-yl}carbamate], the IC50 at B-Raf (setting [1]) and at c-Raf (setting [2]) was 1000 to 10000 nM each time.

On to `O=C1COc2ccc(C3(O)c4ccccc4C(=O)N3c3cc(F)cc(I)c3)cc2N1` (stereo not drawn) [Entry 66, 6-[2-(3-fluoro-5-iodophenyl)-1-hydroxy-3-oxo-2,3-dihydro-1H-isoindol-1-yl]-2H-1,4-benzoxazin-3(4H)-one], for which the IC50 at B-Raf (read-out: bRaf IC50) and at c-Raf (read-out: cRaf-1 IC50) was 1000 to 10000 nM in each case.

Take `COC(=O)Nc1nc2cc(C3(O)c4ccccc4C(=O)N3c3ccc(Br)cc3)ccc2[nH]1` (stereo not drawn) [Entry 138, methyl {5-[2-(4-bromophenyl)-1-hydroxy-3-oxo-2,3-dihydro-1H-isoindol-1-yl]-1H-benzimidazol-2-yl}carbamate]: the IC50 on B-Raf (read-out: bRaf IC50) and on c-Raf (read-out: cRaf-1 IC50) was 100 to 1000 nM in each case.

With `COC(=O)Nc1nc2cc(C3(O)c4ccccc4C(=O)N3c3ccc(F)c(Cl)c3F)ccc2[nH]1` (stereo not drawn) [Entry 252, methyl {5-[2-(3-chloro-2,4-difluorophenyl)-1-hydroxy-3-oxo-2,3-dihydro-1H-isoindol-1-yl]-1H-benzimidazol-2-yl}carbamate], the IC50 on B-Raf (read-out: bRaf IC50) and on c-Raf (read-out: cRaf-1 IC50) was < 100 nM in each case.

`COCCOc1cccc(N2C(=O)c3ccccc3C2(O)c2ccc3[nH]c(NC(=O)OC)nc3c2)c1` (stereo not drawn) [Entry 211, methyl {5-[1-hydroxy-2-(3-{[2-(methyloxy)ethyl]oxy}phenyl)-3-oxo-2,3-dihydro-1H-isoindol-1-yl]-1H-benzimidazol-2-yl}carbamate]: the IC50 on B-Raf (read-out: bRaf IC50) and on c-Raf (read-out: cRaf-1 IC50) was 1000 to 10000 nM throughout.

As to `COC(=O)Nc1nc2cc(C3(O)c4ccccc4C(=O)N3c3cccc(Br)c3F)ccc2[nH]1` (stereo not drawn) [Entry 251, methyl {5-[2-(3-bromo-2-fluorophenyl)-1-hydroxy-3-oxo-2,3-dihydro-1H-isoindol-1-yl]-1H-benzimidazol-2-yl}carbamate], the IC50 at B-Raf (read-out: bRaf IC50) and at c-Raf (read-out: cRaf-1 IC50) was < 100 nM throughout.

Regarding `COC(=O)Nc1nc2ccc(C3(O)c4c(F)ccc(F)c4C(=O)N3c3cc(Cl)ccc3C)cc2[nH]1` (stereo not drawn) [Entry 376, methyl {6-[2-(5-chloro-2-methylphenyl)-4,7-difluoro-1-hydroxy-3-oxo-2,3-dihydro-1H-isoindol-1-yl]-1H-benzimidazol-2-yl}carbamate], the IC50 on B-Raf (setting [1]) and at c-Raf (setting [2]) was < 100 nM throughout.

Regarding `COc1cccc(N2C(=O)c3ccccc3C2(O)c2ccc3nc(Nc4ncccn4)[nH]c3c2)c1` (stereo not drawn) [Entry 373, 3-hydroxy-2-[3-(methyloxy)phenyl]-3-[2-(pyrimidin-2-ylamino)-1H-benzimidazol-6-yl]-2,3-dihydro-1H-isoindol-1-one], the IC50 at B-Raf (setting [1]) and at c-Raf (setting [2]) was < 100 nM each time.

As to `COC(=O)Nc1nc2cc(C3(O)c4ccccc4C(=O)N3C(C)c3cccs3)ccc2[nH]1` (stereo not drawn) [Entry 173, methyl (5-{1-hydroxy-3-oxo-2-[1-(2-thienyl)ethyl]-2,3-dihydro-1H-isoindol-1-yl}-1H-benzimidazol-2-yl)carbamate], the IC50 on B-Raf (read-out: bRaf IC50) and on c-Raf (read-out: cRaf-1 IC50) was < 100 nM throughout.

Turning to `COC(=O)Nc1nc2ccc(C3(O)c4ccccc4C(=O)N3Cc3cccc(Br)c3)cc2[nH]1` (stereo not drawn) [Entry 120, methyl (6-{2-[(3-bromophenyl)methyl]-1-hydroxy-3-oxo-2,3-dihydro-1H-isoindol-1-yl}-1H-benzimidazol-2-yl)carbamate], the IC50 on B-Raf (read-out: bRaf IC50) and at c-Raf (read-out: cRaf-1 IC50) was < 100 nM in each case.

For `C#Cc1ccc(C)c(N2C(=O)c3ccccc3C2(O)c2ccc3[nH]c(NC(=O)OC)nc3c2)c1` (stereo not drawn) [Entry 360, methyl {5-[2-(5-ethynyl-2-methylphenyl)-1-hydroxy-3-oxo-2,3-dihydro-1H-isoindol-1-yl]-1H-benzimidazol-2-yl}carbamate], the IC50 on B-Raf (setting [1]) and on c-Raf (setting [2]) was < 100 nM throughout.

With `COC(=O)Nc1nc2cc(C3(O)c4ccccc4C(=O)N3c3cccc(S(N)(=O)=O)c3)ccc2[nH]1` (stereo not drawn) [Entry 236, methyl (5-{2-[3-(aminosulfonyl)phenyl]-1-hydroxy-3-oxo-2,3-dihydro-1H-isoindol-1-yl}-1H-benzimidazol-2-yl)carbamate], the IC50 at B-Raf (read-out: bRaf IC50) and at c-Raf (read-out: cRaf-1 IC50) was 100 to 1000 nM each time.

As for `COC(=O)Nc1nc2ccc(C3CCC(=O)N3c3cccc(Br)c3)cc2[nH]1` (stereo not drawn) [Entry 313, methyl {6-[1-(3-bromophenyl)-5-oxopyrrolidin-2-yl]-1H-benzimidazol-2-yl}carbamate], the half-maximal inhibitory concentration (IC50) on B-Raf (setting [1]) and on c-Raf (setting [2]) was 1000 to 10000 nM in each case.

`COC(=O)Nc1nc2cc(C3(O)c4ccccc4C(=O)N3c3ccc(Cl)c(C)c3)ccc2[nH]1` (stereo not drawn) [Entry 180, methyl {5-[2-(4-chloro-3-methylphenyl)-1-hydroxy-3-oxo-2,3-dihydro-1H-isoindol-1-yl]-1H-benzimidazol-2-yl}carbamate]: the IC50 at B-Raf (read-out: bRaf IC50) and on c-Raf (read-out: cRaf-1 IC50) was < 100 nM throughout.

Consider `COC(=O)Nc1nc2cc(C3(O)c4ccccc4C(=O)N3c3ccc(Cl)cc3)ccc2[nH]1` (stereo not drawn) [Entry 139, methyl {5-[2-(4-chlorophenyl)-1-hydroxy-3-oxo-2,3-dihydro-1H-isoindol-1-yl]-1H-benzimidazol-2-yl}carbamate], for which the IC50 at B-Raf (read-out: bRaf IC50) and on c-Raf (read-out: cRaf-1 IC50) was < 100 nM each time.

As to `NS(=O)(=O)c1cccc(N2C(=O)c3ccccc3C2(O)c2ccc3c(c2)NC(=O)CO3)c1` (stereo not drawn) [Entry 62, 3-[1-hydroxy-3-oxo-1-(3-oxo-3,4-dihydro-2H-1,4-benzoxazin-6-yl)-1,3-dihydro-2H-isoindol-2-yl]benzenesulfonamide], the figures for the IC50 on B-Raf (read-out: bRaf IC50) and at c-Raf (read-out: cRaf-1 IC50) were ≥ 10000 nM and 1000 to 10000 nM, respectively.

Regarding `CC#CCOC(=O)Nc1nc2cc(C3(O)c4ccccc4C(=O)N3c3ccc(F)cc3)ccc2[nH]1` (stereo not drawn) [Entry 273, but-2-yn-1-yl {5-[2-(4-fluorophenyl)-1-hydroxy-3-oxo-2,3-dihydro-1H-isoindol-1-yl]-1H-benzimidazol-2-yl}carbamate], the IC50 on B-Raf (setting [1]) and at c-Raf (setting [2]) was < 100 nM in each case.

On to `O=C1COc2ccc(C3(O)c4ccccc4C(=O)N3c3ccc(F)c(C(F)(F)F)c3)cc2N1` (stereo not drawn) [Entry 64, 6-{2-[4-fluoro-3-(trifluoromethyl)phenyl]-1-hydroxy-3-oxo-2,3-dihydro-1H-isoindol-1-yl}-2H-1,4-benzoxazin-3(4H)-one], for which the IC50 at B-Raf (read-out: bRaf IC50) and on c-Raf (read-out: cRaf-1 IC50) was ≥ 10000 nM each time.

On to `COC(=O)Nc1nc2cc(C3(O)c4ccccc4C(=O)N3c3cccc(C)c3C)ccc2[nH]1` (stereo not drawn) [Entry 190, methyl {5-[2-(2,3-dimethylphenyl)-1-hydroxy-3-oxo-2,3-dihydro-1H-isoindol-1-yl]-1H-benzimidazol-2-yl}carbamate], for which the half-inhibitory concentration (IC50) on B-Raf (read-out: bRaf IC50) and at c-Raf (read-out: cRaf-1 IC50) was < 100 nM each time.

As to `COC(=O)Nc1nc2cc(C3(O)c4ccccc4C(=O)N3c3cccc(F)c3)ccc2[nH]1` (stereo not drawn) [Entry 136, methyl {5-[2-(3-fluorophenyl)-1-hydroxy-3-oxo-2,3-dihydro-1H-isoindol-1-yl]-1H-benzimidazol-2-yl}carbamate], the IC50 at B-Raf (read-out: bRaf IC50) and at c-Raf (read-out: cRaf-1 IC50) was < 100 nM each time.

Take `COC(=O)Nc1nc2ccc(C3(O)c4c(Cl)ccc(Cl)c4C(=O)N3c3cccc(Cl)c3F)cc2[nH]1` (stereo not drawn) [Entry 349, methyl {6-[4,7-dichloro-2-(3-chloro-2-fluorophenyl)-1-hydroxy-3-oxo-2,3-dihydro-1H-isoindol-1-yl]-1H-benzimidazol-2-yl}carbamate]: the IC50 at B-Raf (setting [1]) and on c-Raf (setting [2]) was 1000 to 10000 nM each time.

For `CN1CCN(CCCOC(=O)Nc2nc3ccc(C4(O)c5ccccc5C(=O)N4Cc4ccccc4)cc3[nH]2)CC1` (stereo not drawn) [Entry 160, 3-(4-methylpiperazin-1-yl)propyl {6-[1-hydroxy-3-oxo-2-(phenylmethyl)-2,3-dihydro-1H-isoindol-1-yl]-1H-benzimidazol-2-yl}carbamate], the half-maximal inhibitory concentration (IC50) at B-Raf (read-out: bRaf IC50) and at c-Raf (read-out: cRaf-1 IC50) was < 100 nM throughout.

On to `Cc1cccc(N2C(=O)c3ccccc3C2(O)c2ccc3nc(Nc4ncccn4)[nH]c3c2)c1` (stereo not drawn) [Entry 374, 3-hydroxy-2-(3-methylphenyl)-3-[2-(pyrimidin-2-ylamino)-1H-benzimidazol-6-yl]-2,3-dihydro-1H-isoindol-1-one], for which the IC50 at B-Raf (setting [1]) and on c-Raf (setting [2]) was < 100 nM each time.

Consider `Cc1ccc(Cl)cc1N1C(=O)c2ccccc2C1(O)c1ccc2nc(Nc3ncccn3)[nH]c2c1` (stereo not drawn) [Entry 375, 2-(5-chloro-2-methylphenyl)-3-hydroxy-3-[2-(pyrimidin-2-ylamino)-1H-benzimidazol-6-yl]-2,3-dihydro-1H-isoindol-1-one], for which the IC50 on B-Raf (setting [1]) and on c-Raf (setting [2]) was < 100 nM in each case.

In the case of `COC(=O)Nc1nc2cc(C3(O)c4ccccc4C(=O)N3Cc3cccc(C)c3)ccc2[nH]1` (stereo not drawn) [Entry 131, methyl (5-{1-hydroxy-2-[(3-methylphenyl)methyl]-3-oxo-2,3-dihydro-1H-isoindol-1-yl}-1H-benzimidazol-2-yl)carbamate], the IC50 at B-Raf (read-out: bRaf IC50) and at c-Raf (read-out: cRaf-1 IC50) was < 100 nM in each case.

`O=C(Nc1nc2cc(C3(O)c4ccccc4C(=O)N3Cc3ccccc3)ccc2[nH]1)OCc1ccccc1` (stereo not drawn) [Entry 125, phenylmethyl {5-[1-hydroxy-3-oxo-2-(phenylmethyl)-2,3-dihydro-1H-isoindol-1-yl]-1H-benzimidazol-2-yl}carbamate]: the IC50 at B-Raf (read-out: bRaf IC50) and at c-Raf (read-out: cRaf-1 IC50) was < 100 nM each time.

As to `COC(=O)C(=O)Nc1nc2ccc(C3(O)c4ccccc4C(=O)N3c3cccc(Cl)c3F)cc2[nH]1` (stereo not drawn) [Entry 318, methyl ({6-[2-(3-chloro-2-fluorophenyl)-1-hydroxy-3-oxo-2,3-dihydro-1H-isoindol-1-yl]-1H-benzimidazol-2-yl}amino)(oxo)acetate], the IC50 on B-Raf (setting [1]) and on c-Raf (setting [2]) was 1000 to 10000 nM each time.

A word on the IC50: it is the concentration at which inhibition is half-maximal.
